Laboratory results reported in EPA's ToxValDB 9.5.

System: Rattus norvegicus
Settings: oral
[1] = short-term, duration: 28 days, gavage, M, Sprague-Dawley, Clinical Observation: Diarrhea + Body Weight Changes: decrease + Food Consumption: decrease + Urinalysis: Color, Brown + Hematology: RET …
[2] = short-term, duration: 28 days, gavage, F, Sprague-Dawley, Food Consumption: decrease + Hematology: RBC decrease, Hct decrease1000 Hgb decrease1000 Plt increase, PT increase, APTT increase, Ret …
[3] = short-term, duration: 28 days, gavage, M, Sprague-Dawley, Food Consumption: decrease + Hematology: RBC decrease, Hct decrease1000 Hgb decrease1000 Plt increase, PT increase, APTT increase, Ret …
[4] = subchronic, gavage, M, Sprague-Dawley, Clinical Observation: Salivation + Urinalysis: Tubular epithelial cell in sediment + Hematology: PT increase, APTT increase + Blood …
[5] = subchronic, gavage, M, Sprague-Dawley, Deaths + Clinical Observation: Salivation + Body Weight Changes: Body weight gain decrease + Food Consumption: decrease + Urinalysis: Brown …

Question: `O=C1c2ccccc2C(=O)c2ccccc21` [Anthraquinone] was tested. Which NOAEL [1] did it give?
Answer: Its NOAEL is less than 200 mg/kg-day.

Question: And the NOEL [1]?
Answer: The NOEL was less than 200 mg/kg-day.

Question: `COC(=O)C1=C(C)NC(C)=C(C(=O)OCC(C)=O)C1c1ccccc1[N+](=O)[O-]` (configuration not stated) [Aranidipine] was tested. Which NOEL (chronic, duration: 91 days, gavage, M/F, Wistar, Deaths + Clinical Observation: Prone position.0 (Dead animal) Hypothermia.0 (Dead animal) Rough respiration Locomotor activity decrease …) did it give?
Answer: The NOEL was 3 mg/kg-day.

Question: What does the source list for `O=C1c2ccccc2-c2cccc3cccc1c23` [Benz[de]anthracen-7-one]?
Answer: LOAEL [2]: 60 mg/kg-day; LOEL [2]: 60 mg/kg-day; NOAEL [2]: 15 mg/kg-day; NOEL [2]: 15 mg/kg-day; LOAEL [3]: 60 mg/kg-day; LOEL [3]: 60 mg/kg-day; NOAEL [3]: 15 mg/kg-day; NOEL [3]: 15 mg/kg-day

Question: With `Nc1ccc(Cc2ccc(N)c(Cl)c2Cl)c(Cl)c1Cl` [Benzenamine, 4,4'-methylenebis(2,3-dichloro-] as the compound, how does the NOEL (short-term, duration: 28 days, gavage, M/F, Sprague-Dawley, Deaths + Hematology: WBC increase + Blood Chemistry: Alpha 1-globirin, level decrease, K increasemg/kg/ , TG increase/ + Relative Organ …) read?
Answer: Its NOEL is 100 mg/kg-day.

Question: `ClCc1ccc(Cl)c(Cl)c1` [Benzene, 1,2-dichloro-4-(chloromethyl)-] was tested. Which NOEL (short-term, duration: 28 days, gavage, M/F, CD(SD), Deaths + Urinalysis: Volume, urinary cast increase, Epithelial cell increase + Absolute Organ Weight: Kidney increase, Liver increase + …) did it give?
Answer: The NOEL was less than 10 mg/kg-day.

Question: `FC(F)(F)c1cccc(C(F)(F)F)c1` [Benzene, 1,3-bis(trifluoromethyl)-] was tested. Which NOAEL [4] did it give?
Answer: The NOAEL was 150 mg/kg-day.

Question: And the NOEL [4]?
Answer: The NOEL was less than 40 mg/kg-day.

Question: `Cc1cc(Cl)ccc1Cl` [Benzene, 1,4-dichloro-2-methyl-] was tested. Which NOEL (subchronic, gavage, M, Sprague-Dawley, Clinical Observation: White turbid urine Salivation + Absolute Organ Weight: Kidney increase + Relative Organ Weight: Kidney increase, R) did it give?
Answer: Its NOEL is 30 mg/kg-day.

Question: For `O=C(OOC(=O)c1ccccc1)c1ccccc1` [Benzoyl peroxide], which NOAEL (short-term, duration: 28 days, gavage, M, Sprague-Dawley, Absolute Organ Weight: Testes decrease + Relative Organ Weight: Testes decrease, Epididymis decrease + Histopathology: Testes: Degeneration) is on record?
Answer: Its NOAEL is 500 mg/kg-day.

Question: How did the NOAEL [5] turn out when `CCCCCCCC[N+](C)(C)Cc1ccccc1.[Cl-]` [Benzyldimethyloctylammonium chloride] was run?
Answer: Its NOAEL is 15 mg/kg-day.

Question: And the NOEL [5]?
Answer: The NOEL was 15 mg/kg-day.

Question: Which NOEL (subchronic, diet, M/F, Sprague-Dawley, Food Consumption: decrease + Urinalysis: Urine volume increase,pH decrease + Hematology: Plt increase, Fib increase + Blood Chemistry: Alp …) does the source give for `C[N+](C)(C)CC(=O)[O-]` [Betaine] here?
Answer: The NOEL was less than 1%.

Question: `COc1ccc(CCNCC(O)COc2cccc(C)c2)cc1OC.Cl` (configuration not stated) [Bevantolol hydrochloride] was tested. Which NOEL (chronic, duration: 91 days, gavage, M/F, CD, Deaths + Clinical Observation: Salivation Sedation Ptosis Prone position Lateral position Crouching position Convulsion Incontinence of …) did it give?
Answer: Its NOEL is 60 mg/kg-day.

Question: How did the NOEL (subchronic, gavage, M/F, Wistar, Clinical Observation: Lethargy + Body Weight Changes: decrease + Urinalysis: Ketone body increase, TP increase + Hematology: Hgb decrease, …) turn out when `ClC(COCC(Cl)C(Cl)(Cl)Cl)C(Cl)(Cl)Cl` (configuration not stated) [Bis(2,3,3,3-tetrachloropropyl) ether] was run?
Answer: The NOEL was 40 mg/kg-day.

Question: Which NOAEL (subchronic, duration: 13 weeks, diet, M/F, Wistar, Urinalysis: pH increase + Hematology: WBC increase, Lymph increase + Blood Chemistry: ALP increase, ASAT increase, GGT increase, A/G …) does the source give for `CCC[CH2][Sn]([Cl])([Cl])[Cl]` [Butyltin trichloride] here?
Answer: Its NOAEL is 144 mg/kg-day.

Question: How did the NOEL (subchronic, duration: 13 weeks, drinking water, F, Fischer 344, Deaths + Body Weight Changes: decrease + Water Consumption: decrease + Absolute Organ Weight: Kidney increase + Relative Organ Weight: …) turn out when `COc1cc(-c2ccc(N=Nc3c(S(=O)(=O)[O-])cc4cc(S(=O)(=O)[O-])cc(N)c4c3O)c(OC)c2)ccc1N=Nc1c(S(=O)(=O)[O-])cc2cc(S(=O)(=O)[O-])cc(N)c2c1O.[Na+].[Na+].[Na+].[Na+]` [C.I. Direct Blue 15] was run?
Answer: The NOEL was 380 mg/kg-day.

Question: And the NOEL (subchronic, duration: 13 weeks, drinking water, M, Fischer 344, Deaths + Body Weight Changes: decrease + Water Consumption: decrease + Absolute Organ Weight: Kidney increase + Relative Organ Weight: …)?
Answer: Its NOEL is less than 190 mg/kg-day.

Question: Which results are given for `Nc1cc(S(=O)(=O)[O-])cc2cc(S(=O)(=O)[O-])c(N=Nc3ccc(-c4ccc(N=Nc5c(S(=O)(=O)[O-])cc6cc(S(=O)(=O)[O-])cc(N)c6c5[O-])c([O-])c4)cc3[O-])c([O-])c12.[Cu+2].[Cu+2].[Na+].[Na+].[Na+].[Na+]` [C.I. Direct Blue 218]?
Answer: NOEL (subchronic, duration: 13 weeks, diet, F, Fischer 344, Body Weight Changes: decrease + Food Consumption: decrease + Hematology: Hct decrease, Hgb decrease + Blood Chemistry: ALT increase, , SDH …): 200 mg/kg-day; NOEL (subchronic, duration: 13 weeks, diet, M/F, Fischer 344, Body Weight Changes: decrease + Food Consumption: decrease + Hematology: Hct decrease, Hgb decrease + Blood Chemistry: ALT increase, , SDH …): < 288 mg/kg-day
